This passage reports LC retention time results from the RepoRT retention time repository (doi:10.1016/j.jchromb.2020.122105).

Common to all, as to conditions: stereoisomer not certain
Series [1] in a line: RP, Waters CORTECS T3, 100 × 2.1 mm, 2.7 µm, 0.3 mL/min, estimated dead time 0.73 min; A: water + 0.1% formic acid, pH 3; B: methanol + 0.1% formic acid, pH 3; gradient (min/%B) 0/5 5/5 25/100 30/100 30.1/5 35/5.
The nature of series [2]: RP, Waters CORTECS T3, 100 × 2.1 mm, 2.7 µm, 0.3 mL/min, estimated dead time 0.73 min; A: water + 0.1% formic acid, pH 3; B: methanol + 0.1% formic acid, pH 3; gradient (min/%B) 0/0 5/0 25/100 30/100 30.1/0 35/0.
Series [3] is described as follows: RP, Waters CORTECS T3, 100 × 2.1 mm, 2.7 µm, 0.2 mL/min, estimated dead time 1.1 min; A: water + 0.1% formic acid, pH 3; B: methanol + 0.1% formic acid, pH 3; gradient (min/%B) 0/0 1/0 6/5 30/100 35/100 35.1/0 40/0.
Series [4] in a line: RP, Waters CORTECS T3, 100 × 2.1 mm, 2.7 µm, 0.2 mL/min, estimated dead time 1.1 min; A: water + 0.1% formic acid, pH 3; B: methanol + 0.1% formic acid, pH 3; gradient (min/%B) 0/5 5/5 25/95 25.1/100 35/100 35.1/5 45/5.
Series [5] is described as follows: RP, Thermo Scientific Hypercarb, 150 × 2.1 mm, 5 µm, 0.1 mL/min, estimated dead time 3.3 min; A: water + 0.1% formic acid, pH 3; B: methanol + 0.1% formic acid, pH 3; gradient (min/%B) 0/5 5/5 20/100 35/100 35.1/5 45/5.
A short description of series [6]: RP, Waters ACQUITY UPLC BEH C18, 100 × 2.1 mm, 1.7 µm, 0.2 mL/min, estimated dead time 1.1 min; A: water + 0.1% formic acid, pH 3; B: methanol + 0.1% formic acid, pH 3; gradient (min/%B) 0/5 5/5 25/100 30/100 30.1/5 35/5.
The nature of series [7]: RP, Waters ACQUITY UPLC BEH C18, 100 × 2.1 mm, 1.7 µm, 0.1 mL/min, estimated dead time 2.2 min; A: water + 0.1% formic acid, pH 3; B: methanol + 0.1% formic acid, pH 3; gradient (min/%B) 0/5 5/5 25/100 30/100 30.1/5 35/5.
Series [8] can be described thus: RP, Waters CORTECS T3, 100 × 2.1 mm, 2.7 µm, 0.2 mL/min, estimated dead time 1.1 min; A: water + 0.045% formic acid + 0.11% ammonium hydroxide, pH 7; B: methanol; gradient (min/%B) 0/5 5/5 25/95 25.1/100 35/100 35.1/5 45/5.
A short description of series [9]: RP, Waters ACQUITY UPLC BEH C18, 100 × 2.1 mm, 1.7 µm, 0.1 mL/min, estimated dead time 2.2 min; A: water + 0.1% formic acid, pH 3; B: methanol + 0.1% formic acid, pH 3; gradient (min/%B) 0/5 5/5 25/95 25.1/100 35/100 35.1/5 45/5.
Series [10] in a line: RP, Waters ACQUITY UPLC BEH C18, 100 × 2.1 mm, 1.7 µm, 0.2 mL/min, estimated dead time 1.1 min; A: water + 0.025% formic acid + 20 mM ammonium acetate + 0.055% ammonium hydroxide, pH 7; B: methanol; gradient (min/%B) 0/5 5/5 25/100 30/100 30.1/5 35/5.
Series [11] can be described thus: HILIC, Waters XBridge BEH Amide, 100 × 2.1 mm, 2.5 µm, 0.5 mL/min, estimated dead time 0.44 min; A: water + 0.1% acetic acid + 10 mM ammonium acetate, pH 4; B: 5% water + 95% acetonitrile + 0.1% acetic acid + 10 mM ammonium acetate, pH 4; gradient (min/%B) 0/95 5/95 20/57 25/57 30/95 40/95.
Series [12] in a line: HILIC, Thermo Scientific Accucore HILIC, 100 × 2.1 mm, 2.6 µm, 0.5 mL/min, estimated dead time 0.44 min; A: water + 0.1% formic acid + 10 mM ammonium formate, pH 3; B: 5% water + 95% acetonitrile + 0.1% formic acid + 10 mM ammonium formate, pH 3; gradient (min/%B) 0/95 5/95 20/57 25/57 30/95 40/95.

Regarding `CC1NC(=O)NC1CCCCCC(=O)O` (stereo unspecified) [DETHIOBIOTIN], the LC retention time in [1] was 12.4 min; in series [2], 13.2 min; in [3], 15.7 min; in series [4] it was 19 min; in series [5], 30 min; in series [6], 13.8 min. Also, the LC retention time in series [7] was 16.9 min; in [8], 9.32 min; in series [9], 17.2 min; in [10], 9.58 min.
In the case of `Nc1nc2nccnc2c(=O)[nH]1` [PTERIN], the LC retention time in [1] was 1.73 min; in series [2] it was 2.96 min; in [4], 8.07 min; in series [6], 2.44 min; in series [7] it was 4.78 min; in series [8], 1.35 min. The figures for the LC retention time in series [9], in series [11] and in [12] were 4.74 min, 4.98 min and 3.39 min, respectively.
Turning to `O=C(O)c1cc(=O)c2cccc(O)c2[nH]1` [XANTHURENIC ACID], the LC retention time in [1] is 8.94 min; in series [2] it was 10.3 min; in [3], 12.1 min; in series [4], 15.5 min; in series [6], 10.4 min; in series [7], 13.8 min. Moreover, the values for the LC retention time in series [9] and in series [12] were 14 min and 7.89 min, respectively.
In the case of `Cc1cc2nc3c(=O)[nH]c(=O)nc-3n(CC(O)C(O)C(O)CO)c2cc1C` (stereo unspecified) [RIBOFLAVIN], the LC retention time in series [1] is 11.7 min; in series [2], 12.5 min; in series [3] it was 14.7 min; in [4], 17.7 min; in [6], 12.7 min; in series [7] it was 15.5 min. Also, the values for the LC retention time in series [8], in series [9] and in [10] were 13.2 min, 15.7 min and 12.7 min, respectively.
Take `CC(=O)N[C@H](Cc1c[nH]c2ccccc12)C(=O)O` [N-ACETYL-D-TRYPTOPHAN]: the LC retention time in [1] was 12.3 min; in [2], 13.2 min; in series [3], 15.7 min; in series [4], 19.2 min; in series [6], 14 min; in series [7], 17.3 min. Also, the LC retention time in series [8] is 10.4 min; in [9] it was 17.6 min; in series [11], 8.11 min.
Regarding `O=c1[nH]c(=O)c2[nH]cnc2[nH]1` [XANTHINE], the LC retention time was 1.53 min in series [1]; 2.27 min in series [2]; 3.32 min in [3]; 2.14 min in series [6]; 2.82 min in series [9]; 6.47 min in [11]. Also, in [12], the LC retention time was 1.92 min.
Consider `CC(C)(CO)C(O)C(=O)NCCC(=O)O` [D-PANTOTHENIC ACID], for which the LC retention time in [1] was 5.2 min; in series [2], 8.53 min; in series [3], 9.6 min; in series [4], 13 min; in series [5], 21.3 min; in series [6], 8.01 min. For the same compound, the LC retention time in series [7] was 11.5 min; in series [9], 11.6 min; in [12], 4.93 min.
For the compound `O=C(O)c1cc(=O)c2ccccc2[nH]1` [4-HYDROXY-2-QUINOLINECARBOXYLIC ACID], the LC retention time in [1] is 9.17 min; in [2] it was 10.5 min; in series [3], 12.3 min; in series [4], 15.8 min; in series [6] it was 10.9 min; in [7] it was 14.2 min. Further, the LC retention time was 7.9 min in series [8], 8.26 min in series [10], 8.25 min in [11] and 6.71 min in series [12].
As to `CC(C)=CCNc1ncnc2nc[nH]c12` [N6-(DELTA2-ISOPENTENYL)-ADENINE], the LC retention time is 11.8 min in series [1]; 12.7 min in [2]; 15.1 min in series [3]; 18.8 min in [4]; 13.4 min in [6]; 16.9 min in series [7]. In addition, the LC retention time is 16.9 min in series [8]; 17.2 min in series [9]; 16.8 min in series [10]; 0.72 min in [11]; 0.92 min in series [12].
Turning to `N[C@@H](Cc1cc(I)c(Oc2ccc(O)cc2)c(I)c1)C(=O)O` [3,5-DIIODO-L-THYRONINE], the LC retention time in series [1] was 15.5 min; in series [2], 16.1 min; in [3], 19.2 min; in series [4], 22.3 min; in series [6] it was 16.9 min; in [7], 19.7 min. Besides, the LC retention time is 17.2 min in series [8], 17.1 min in series [10] and 8.63 min in series [12].
